# Legend:
# Experiment in all cases: relative viability (nuclei count vs DMSO), 5 days (fraction); higher = more cells survive
# NCI-H1437 = system: NCI-H1437
# In short: (§1)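 Lung cancer cell lines, seeded in 1536-well plates, were treated the following day by pin tool with a single drug or with five library-drug doses (not always all listed) in √10 steps on top of a fixed anchor-drug dose. Cells were fixed and nuclei stained in one step after 5 days, and nuclei were counted. Relative viability is the nuclei count for treated wells divided by that for vehicle wells, reported as medians of duplicate plates.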
# NCI-H1355 = system: NCI-H1355
# In short: as §1
# NCI-H2085 = system: NCI-H2085
# In short: as §1
# NCI-H838 = system: NCI-H838
# In short: as §1
# NCI-H1395 = system: NCI-H1395
# In short: as §1
# NCI-H2342 = system: NCI-H2342
# In short: as §1
# NCI-H1755 = system: NCI-H1755
# In short: as §1
# NCI-H1650 = system: NCI-H1650
# In short: as §1
# HCC-366 = system: HCC-366
# In short: as §1
# HCC-15 = system: HCC-15
# In short: as §1
# LCLC-103H = system: LCLC-103H
# In short: as §1
# NCI-H1734 = system: NCI-H1734
# In short: as §1
# NCI-H1651 = system: NCI-H1651
# In short: as §1
# NCI-H358 = system: NCI-H358
# In short: as §1
# BEN = system: BEN
# In short: as §1
# NCI-H441 = system: NCI-H441
# In short: as §1
# NCI-H2023 = system: NCI-H2023
# In short: as §1
# HCC-44 = system: HCC-44
# In short: as §1
# CAL-12T = system: CAL-12T
# In short: as §1
# EKVX = system: EKVX
# In short: as §1
# NCI-H1975 = system: NCI-H1975
# In short: as §1
# LOU-NH91 = system: LOU-NH91
# In short: as §1
# NCI-H460 = system: NCI-H460
# In short: as §1
smiles,measurement,setting,value
Clc1ccc(Nc2nnc(Cc3ccncc3)c3ccccc23)cc1 [Vatalanib] + CC(=O)Nc1cccc(-n2c(=O)n(C3CC3)c(=O)c3c(Nc4ccc(I)cc4F)n(C)c(=O)c(C)c32)c1 [Trametinib] (partner 0.02 µM),relative viability,NCI-H1437; first compound 0.04 µM,0.571
same,relative viability,NCI-H1437; first compound 0.1265 µM,0.499
same,relative viability,NCI-H1437; first compound 0.4 µM,0.554
same,relative viability,NCI-H1437; first compound 1.265 µM,0.451
same,relative viability,NCI-H1437; first compound 4 µM,0.486
same,relative viability,NCI-H1355; first compound 0.04 µM,0.443
same,relative viability,NCI-H1355; first compound 0.1265 µM,0.383
same,relative viability,NCI-H1355; first compound 0.4 µM,0.461
same,relative viability,NCI-H1355; first compound 1.265 µM,0.404
same,relative viability,NCI-H1355; first compound 4 µM,0.428
same,relative viability,NCI-H2085; first compound 0.04 µM,0.516
same,relative viability,NCI-H2085; first compound 0.1265 µM,0.384
same,relative viability,NCI-H2085; first compound 0.4 µM,0.645
same,relative viability,NCI-H2085; first compound 1.265 µM,0.484
same,relative viability,NCI-H2085; first compound 4 µM,0.735
same,relative viability,NCI-H838; first compound 0.04 µM,0.575
same,relative viability,NCI-H838; first compound 0.1265 µM,0.539
same,relative viability,NCI-H838; first compound 0.4 µM,0.657
same,relative viability,NCI-H838; first compound 1.265 µM,0.462
same,relative viability,NCI-H838; first compound 4 µM,0.509
same,relative viability,NCI-H1395; first compound 0.04 µM,1.1
same,relative viability,NCI-H1395; first compound 0.1265 µM,1.03
same,relative viability,NCI-H1395; first compound 0.4 µM,1.14
same,relative viability,NCI-H1395; first compound 4 µM,0.974
same,relative viability,NCI-H2342; first compound 0.04 µM,0.766
same,relative viability,NCI-H2342; first compound 0.1265 µM,0.794
same,relative viability,NCI-H2342; first compound 0.4 µM,0.737
same,relative viability,NCI-H2342; first compound 1.265 µM,0.747
same,relative viability,NCI-H2342; first compound 4 µM,0.804
same,relative viability,NCI-H1755; first compound 0.04 µM,0.734
same,relative viability,NCI-H1755; first compound 0.1265 µM,0.812
same,relative viability,NCI-H1755; first compound 0.4 µM,0.753
same,relative viability,NCI-H1755; first compound 1.265 µM,0.788
same,relative viability,NCI-H1755; first compound 4 µM,0.717
same,relative viability,NCI-H1650; first compound 0.04 µM,0.598
same,relative viability,NCI-H1650; first compound 0.1265 µM,0.532
same,relative viability,NCI-H1650; first compound 0.4 µM,0.306
same,relative viability,NCI-H1650; first compound 1.265 µM,0.656
same,relative viability,NCI-H1650; first compound 4 µM,0.508
same,relative viability,HCC-366; first compound 0.04 µM,0.393
same,relative viability,HCC-366; first compound 0.1265 µM,0.294
same,relative viability,HCC-366; first compound 0.4 µM,0.372
same,relative viability,HCC-366; first compound 1.265 µM,0.306
same,relative viability,HCC-366; first compound 4 µM,0.299
same,relative viability,HCC-15; first compound 0.04 µM,0.392
same,relative viability,HCC-15; first compound 0.1265 µM,0.412
same,relative viability,HCC-15; first compound 0.4 µM,0.404
same,relative viability,HCC-15; first compound 1.265 µM,0.365
same,relative viability,HCC-15; first compound 4 µM,0.365
same,relative viability,LCLC-103H; first compound 0.04 µM,0.663
same,relative viability,LCLC-103H; first compound 0.1265 µM,0.663
same,relative viability,LCLC-103H; first compound 0.4 µM,0.684
same,relative viability,LCLC-103H; first compound 1.265 µM,0.653
same,relative viability,LCLC-103H; first compound 4 µM,0.669
same,relative viability,NCI-H1734; first compound 0.04 µM,0.731
same,relative viability,NCI-H1734; first compound 0.1265 µM,0.673
same,relative viability,NCI-H1734; first compound 0.4 µM,0.705
same,relative viability,NCI-H1734; first compound 1.265 µM,0.655
same,relative viability,NCI-H1734; first compound 4 µM,0.684
same,relative viability,NCI-H1651; first compound 0.04 µM,0.802
same,relative viability,NCI-H1651; first compound 0.1265 µM,0.778
same,relative viability,NCI-H1651; first compound 0.4 µM,0.779
same,relative viability,NCI-H1651; first compound 1.265 µM,0.742
same,relative viability,NCI-H1651; first compound 4 µM,0.809
same,relative viability,NCI-H358; first compound 0.04 µM,0.156
same,relative viability,NCI-H358; first compound 0.1265 µM,0.122
same,relative viability,NCI-H358; first compound 0.4 µM,0.151
same,relative viability,NCI-H358; first compound 1.265 µM,0.13
same,relative viability,NCI-H358; first compound 4 µM,0.138
same,relative viability,BEN; first compound 0.04 µM,1.12
same,relative viability,BEN; first compound 0.1265 µM,1.04
same,relative viability,BEN; first compound 0.4 µM,0.976
same,relative viability,BEN; first compound 1.265 µM,1.12
same,relative viability,BEN; first compound 4 µM,0.977
same,relative viability,NCI-H441; first compound 0.04 µM,0.435
same,relative viability,NCI-H441; first compound 0.1265 µM,0.366
same,relative viability,NCI-H441; first compound 0.4 µM,0.476
same,relative viability,NCI-H441; first compound 1.265 µM,0.411
same,relative viability,NCI-H441; first compound 4 µM,0.421
same,relative viability,NCI-H2023; first compound 0.04 µM,0.5
same,relative viability,NCI-H2023; first compound 0.1265 µM,0.529
same,relative viability,NCI-H2023; first compound 0.4 µM,0.477
same,relative viability,NCI-H2023; first compound 1.265 µM,0.503
same,relative viability,NCI-H2023; first compound 4 µM,0.517
same,relative viability,HCC-44; first compound 0.04 µM,1.06
same,relative viability,HCC-44; first compound 0.1265 µM,1.07
same,relative viability,HCC-44; first compound 0.4 µM,0.959
same,relative viability,HCC-44; first compound 1.265 µM,0.994
same,relative viability,HCC-44; first compound 4 µM,1.02
same,relative viability,CAL-12T; first compound 0.04 µM,0.366
same,relative viability,CAL-12T; first compound 0.1265 µM,0.296
same,relative viability,CAL-12T; first compound 0.4 µM,0.368
same,relative viability,CAL-12T; first compound 1.265 µM,0.366
same,relative viability,CAL-12T; first compound 4 µM,0.298
same,relative viability,EKVX; first compound 0.04 µM,0.274
same,relative viability,EKVX; first compound 0.1265 µM,0.409
same,relative viability,EKVX; first compound 0.4 µM,0.308
same,relative viability,EKVX; first compound 1.265 µM,0.351
same,relative viability,EKVX; first compound 4 µM,0.39
same,relative viability,NCI-H1975; first compound 0.04 µM,0.317
same,relative viability,NCI-H1975; first compound 0.1265 µM,0.345
same,relative viability,NCI-H1975; first compound 0.4 µM,0.434
same,relative viability,NCI-H1975; first compound 1.265 µM,0.315
same,relative viability,NCI-H1975; first compound 4 µM,0.361
same,relative viability,LOU-NH91; first compound 0.04 µM,0.769
same,relative viability,LOU-NH91; first compound 0.1265 µM,0.764
same,relative viability,LOU-NH91; first compound 0.4 µM,0.794
same,relative viability,LOU-NH91; first compound 1.265 µM,0.746
same,relative viability,LOU-NH91; first compound 4 µM,0.765
same,relative viability,NCI-H460; first compound 0.04 µM,0.178
same,relative viability,NCI-H460; first compound 0.1265 µM,0.11
same,relative viability,NCI-H460; first compound 0.4 µM,0.201
same,relative viability,NCI-H460; first compound 1.265 µM,0.135
same,relative viability,NCI-H460; first compound 4 µM,0.0924
